# Experimental data taken from US20250129101A1, “Compound, Pharmaceutical Composition Comprising the Same and Method for Treating Cancer Using the Same” (NATIONAL TSING HUA UNIVERSITY, priority 2023, published 2025).
# pEC50, pIC50: −log10 of the molar value.
# Assays:
# MDA-MB-231 cells = experiment: Cell validation: cytotoxicity in MDA-MB-231 cells (CellTiter-Glo); assay type: cell-based; conditions: for pIC50: Homo sapiens; for pIC50 / Cell validation (IC50): cytotoxicity in MDA-MB-231 cells; for cytotoxicity on MDA-MB-231 cells (in words): 72 hr
# Protocol: (§1) The in vitro validation was performed by measuring KIF2C kinesin activity using malachite green-based phosphate colorimetric assay (BioVision). […] The microtubules from porcine brain tubulin (Cytoskeleton) or purified from HEK293 cells in Free-style medium (293Fs) were dissolved in the BRB80 buffer (80 mM PIPES pH 6.8, 1 mM EGTA, 1 mM MgCl2, 1 mM GTP, 1 mM DTT, and 10% DMSO) at 37° C. for 2 hr. Phosphates released from kinesin-mediated ATP hydrolysis was measured by adding 30 μL of the phosphate colorimetric reagent (BioVision), incubated for 10 min, and then measured with absorbance at 650 nm. […] The cell validation was performed by measuring cytotoxicity in MDA-MB-231 cells. The cells were cultured in a 96-well plate at a confluence of 2000 cells/well with indicates compounds for specific days. When the time was up, the culture medium in the plate was aspirated and replaced with a prepared CellTiter-Glo reagent (Promega)/DMEM mixture (1:1 mix of CellTiter-Glo reagent and serum-supplemented DMEM). After incubation for 10 min, the luminescence was measured with an ELISA plate reader to determine the cell viability.
# The cancer cells were cultured in a 96-well plate at a confluence of 1000-2000 cells/well with indicated drugs for specific days. When the time was up, the culture medium in the plate was aspirated and replaced with a prepared CellTiter-Glo reagent/DMEM mixture (1:1 mix of CellTiter-Glo reagent and serum-supplemented DMEM). After incubation for 10 min, the luminescence (proportional to the number of living cells) was measured with an ELISA plate reader to determine the cell viability.
# KIF2C = target: T1, KIF2C (Homo sapiens, UniProt Q99661); experiment: In vitro validation: KIF2C kinesin activity, malachite green-based phosphate colorimetric assay; assay type: biochemical; conditions: concentration that inhibits 50% of KIF2C activity
# T1 construct: KIF2C (216-598 a.a.); 6xHis (C); made in house; host or cells: E. coli BL21 (DE3), pET-28a
# T1 sequence (Q99661 216-598): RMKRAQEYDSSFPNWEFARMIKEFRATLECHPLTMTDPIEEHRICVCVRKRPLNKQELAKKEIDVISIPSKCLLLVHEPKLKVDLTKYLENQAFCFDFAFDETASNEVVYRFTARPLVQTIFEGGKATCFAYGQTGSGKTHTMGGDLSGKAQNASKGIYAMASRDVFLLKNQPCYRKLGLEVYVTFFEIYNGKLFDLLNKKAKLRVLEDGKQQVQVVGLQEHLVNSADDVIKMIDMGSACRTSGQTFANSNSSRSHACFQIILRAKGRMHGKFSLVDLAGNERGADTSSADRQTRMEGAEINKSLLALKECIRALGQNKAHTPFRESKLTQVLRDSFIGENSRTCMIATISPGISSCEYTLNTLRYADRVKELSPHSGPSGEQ
# Protocol: as §1
# In vitro kinesin activity was measured using malachite green-based phosphate colorimetric assay (BioVision). […] The microtubules from porcine brain tubulin (Cytoskeleton) or purified from HEK293 cells in Free-style medium (293Fs) were dissolved in the BRB80 buffer (80 mM PIPES pH 6.8, 1 mM EGTA, 1 mM MgCl2, 1 mM GTP, 1 mM DTT, and 10% DMSO) at 37° C. for 2 hr. Phosphates released from kinesin-mediated ATP hydrolysis was measured by adding 30 μL of the phosphate colorimetric reagent (BioVision), incubated for 10 min, and then measured with absorbance at 650 nm.
# Constructs of sN+M regions of KIF2C (216-598 a.a.), KIF2A (181-562 a.a.) and KIF2B (171-553 a.a.) with C-terminal 6×His tag were subcloned into pET-28a vector and expressed in BL21 (DE3) E. coli cells (Novartis) cultured in Luria-Bertani medium supplemented with 50 ug/mL kanamycin at 37° C. After induction with 0.8 mM IPTG for 18 hr at 20° C., the cells were pelleted by centrifugation at 6000 rpm for 30 min at 10° C. The collected pellets were resuspended in 30 mL of buffer A (20 mM Tris-HCl pH 7.5, 500 mM NaCl, 10 mM imidazole, 1% CHAPS, and 1 mM PMSF) and next subjected to a high-pressure homogenizer (EmulsiFlex-C3) for cell lysis. After removing the cell debris by centrifugation at 13000 rpm for 30 min at 10° C., the recombinant Kinesin-13 in the supernatant was purified using nickel affinity chromatography. Firstly, the supernatant was applied to the Ni-NTA column (GE Healthcare) pre-equilibrated with buffer A. Secondly, the column was washed with 10× column volumes of buffer A to remove the unwanted proteins. The washed column was then eluted with 10× column volumes of buffer containing increasing concentrations of imidazole (40, 100, 300, 1000 mM), and the majority of the recombinant Kinesin-13 protein was eventually obtained in a fraction of 300 mM imidazole. The fractions containing the recombinant Kinesin-13 were subsequently concentrated in the buffer B (20 mM Tris-HCl pH 7.5, 10 mM imidazole, 50 mM NaCl, 2 mM DTT) using an Amicon® Ultra filter (Millipore) and subjected to cation exchange column (Capto S, GE Healthcare) for further purification. The recombinant Kinesin-13 was then eluted in elution buffer (20 mM Tris-HCl pH 7.5 and 2 mM DTT) containing 400 mM of NaCl and stored at −80° C. for long-term storage.
Compound,pIC50 (MDA-MB-231 cells),pEC50 (KIF2C),cytotoxicity on MDA-MB-231 cells (in words) (MDA-MB-231 cells),Cell validation (IC50) (MDA-MB-231 cells)
"CC1=C(C(=O)OC(C)C)C(c2ccc(-n3ccnc3)cc2)n2c(s/c(=C\c3ccc(OCC(=O)O)cc3)c2=O)=N1 (stereo not drawn) [52S0 (45), (Z)-2-(4-((5-(4-(1H-imidazol-1-yl)phenyl)-6-(isopropoxycarbonyl)-7-methyl-3-oxo-5H-thiazolo[3,2-a]pyrimidin-2(3H)-ylidene)methyl)phenoxy)acetic acid]",< 4.30,< 4.00,–,–
"CCOC(=O)C1=C(C)N=c2s/c(=C\c3ccc(OCC(=O)OC)cc3)c(=O)n2C1c1ccc(Cl)cc1 (stereo not drawn) [35S0 (110), ethyl (Z)-5-(4-chlorophenyl)-2-(4-(2-methoxy-2-oxoethoxy)benzylidene)-7-methyl-3-oxo-2,3-dihydro-5H-thiazolo[3,2-a]pyrimidine-6-carboxylate]",4.30 to 4.70,< 4.00,–,–
"CC1=C(C(=O)OC(C)C)C(c2ccc(Cl)cc2)n2c(s/c(=C\c3ccc(OCC(=O)N4CCN(C)CC4)cc3)c2=O)=N1 (stereo not drawn) [6S0 (13), propan-2-yl (2Z)-5-(4-chlorophenyl)-7-methyl-2-(4-(2-(4-methylpiperazin-1-yl)-2-oxoethoxy)benzylidene)-3-oxo-2,3-dihydro-5H-[1,3]thiazolo[3,2-a]pyrimidine-6-carboxylate]",–,4.00 to 4.30,showed cytotoxicity,+ +
"CC1=C(C(=O)OC(C)C)C(c2ccc(Cl)cc2)n2c(s/c(=C\c3ccc(OCc4cnn[nH]4)cc3)c2=O)=N1 (stereo not drawn) [37S0 (120), isopropyl (Z)-2-(4-((1H-1,2,3-triazol-5-yl)methoxy)benzylidene)-5-(4-chlorophenyl)-7-methyl-3-oxo-2,3-dihydro-5H-thiazolo[3,2-a]pyrimidine-6-carboxylate]",< 4.30,< 4.00,–,–
CCOC(=O)C1=C(C)N=c2s/c(=C\c3ccc(OCC(=O)N4CCN(CC)CC4)cc3)c(=O)n2C1c1ccc(N(C)C)cc1 (stereo not drawn) [Compound 146],4.30 to 4.70,> 4.30,–,–
CC1=C(C(=O)O)C(c2ccc(N(C)C)cc2)n2c(s/c(=C\c3ccc(OCC(=O)N4CCN(C)CC4)cc3)c2=O)=N1 (stereo not drawn) [Compound 142],< 4.30,4.00 to 4.30,–,–
"CC1=C(C(=O)OC(C)C)C(c2ccc(Cl)cc2)n2c(s/c(=C\c3ccc(OCC(=O)N4CCC(N(C)C)CC4)cc3)c2=O)=N1 (stereo not drawn) [23S0 (18), propan-2-yl (2Z)-5-(4-chlorophenyl)-2-(4-(2-(4-(dimethylamino)piperidin-1-yl)-2-oxoethoxy)benzylidene)-7-methyl-3-oxo-2,3-dihydro-5H-[1,3]thiazolo[3,2-a]pyrimidine-6-carboxylate]",–,> 4.30,–,+ + +
"C=CCOC(=O)C1=C(C)N=c2s/c(=C\c3ccc(OCC(=O)N4CCN(C)CC4)cc3)c(=O)n2C1c1ccc(Cl)cc1 (stereo not drawn) [30S0 (96), allyl (Z)-5-(4-chlorophenyl)-7-methyl-2-(4-(2-(4-methylpiperazin-1-yl)-2-oxoethoxy)benzylidene)-3-oxo-2,3-dihydro-5H-thiazolo[3,2-a]pyrimidine-6-carboxylate]",–,< 4.00,–,+ +
"COC(=O)COc1ccc(/C=c2\sc3n(c2=O)C(c2ccc(Cl)cc2)C(C(=O)OC(C)C)=C(C)N=3)cc1 (stereo not drawn) [46S0 (25), isopropyl (Z)-5-(4-chlorophenyl)-2-(4-(2-methoxy-2-oxoethoxy)benzylidene)-7-methyl-3-oxo-2,3-dihydro-5H-thiazolo[3,2-a]pyrimidine-6-carboxylate]",< 4.30,< 4.00,–,–
COC(=O)C1=C(C)N=c2s/c(=C\c3ccc(OCC(=O)N4CCN(C)CC4)cc3)c(=O)n2C1c1ccc(Cl)cc1 (stereo not drawn) [26S0 (93)],–,4.00 to 4.30,–,+ +
"CC1=C(C(=O)OC(C)C)C(c2ccc(Br)cc2)n2c(s/c(=C\c3ccc(OCC(=O)O)cc3)c2=O)=N1 (stereo not drawn) [40S0 (40), (4-(((2Z)-5-(4-bromophenyl)-7-methyl-3-oxo-6-((propan-2-yloxy)carbonyl)-5H-[1,3]thiazolo[3,2-a]pyrimidin-2(3H)-ylidene)methyl)phenoxy)acetic acid]",< 4.30,> 4.70,–,–
"CC1=C(C(=O)OC(C)C)C(c2ccc(Cl)cc2)n2c(s/c(=C\c3ccc(OCC(=O)N4CCN(C5CCCCC5)CC4)cc3)c2=O)=N1 (stereo not drawn) [22S0 (17), propan-2-yl (2Z)-5-(4-chlorophenyl)-2-(4-(2-(4-cyclohexylpiperazin-1-yl)-2-oxoethoxy)benzylidene)-7-methyl-3-oxo-2,3-dihydro-5H-[1,3]thiazolo[3,2-a]pyrimidine-6-carboxylate]",< 4.30,< 4.00,–,–
"CC1=C(C(=O)CC(C)C)C(c2ccc(Cl)cc2)n2c(s/c(=C\c3ccc(OCC(=O)N4CCN(C)CC4)cc3)c2=O)=N1 (stereo not drawn) [27S0 (98), (Z)-5-(4-chlorophenyl)-7-methyl-6-(3-methylbutanoyl)-2-(4-(2-(4-methylpiperazin-1-yl)-2-oxoethoxy)benzylidene)-5H-thiazolo[3,2-a]pyrimidin-3(2H)-one]",–,4.00 to 4.30,–,+ +
CC1=C(C(=O)OC(C)(C)C)C(c2ccc(Cl)cc2)n2c(s/c(=C\c3ccc(OCC(=O)N4CCN(C)CC4)cc3)c2=O)=N1 (stereo not drawn) [25S0 (95)],–,< 4.00,–,+ +
"COc1ccc(C2C(C(=O)OC(C)C)=C(C)N=c3s/c(=C\c4ccc(OCC(=O)N5CCC(N6CCN(C)CC6)CC5)cc4)c(=O)n32)cc1 (stereo not drawn) [43S0 (62), isopropan-2-yl (2Z)-5-(4-chlorophenyl)-7-methyl-2-(4-(2-(4-(4-methylpiperazin-1-yl)piperidin-1-yl)-2-oxoethoxy)benzylidene)-3-oxo-2,3-dihydro-5H-[1,3]thiazolo[3,2-a]pyrimidine-6-carboxylate]",–,4.00 to 4.30,–,+ + + +
CCN1CCN(C(=O)COc2ccc(/C=c3\sc4n(c3=O)C(c3ccc(Cl)cc3)C(C(=O)OC(C)C)=C(C)N=4)cc2)CC1 (stereo not drawn) [Compound 13S0],–,4.00 to 4.30,showed cytotoxicity,+ +
"CC1=C(C(=O)OC(C)C)C(c2ccc(C)cc2)n2c(s/c(=C\c3ccc(OCC(=O)O)cc3)c2=O)=N1 (stereo not drawn) [17S0 (50), (Z)-2-(4-((6-(isopropoxycarbonyl)-7-methyl-3-oxo-5-(p-tolyl)-5H-thiazolo[3,2-a]pyrimidin-2(3H)-ylidene)methyl)phenoxy)acetic acid]",< 4.30,< 4.00,–,–
CCN1CCN(C(=O)COc2ccc(/C=c3\sc4n(c3=O)C(c3ccc(N(C)C)cc3)C(C(=O)O)=C(C)N=4)cc2)CC1 (stereo not drawn) [Compound 145],< 4.30,> 4.30,–,–
"CCN1CCN(C(=O)COc2ccc(/C=c3\sc4n(c3=O)C(c3ccc(C)cc3)C(C(=O)OC(C)C)=C(C)N=4)cc2)CC1 (stereo not drawn) [18S0 (51), isopropyl (Z)-2-(4-(2-(4-ethylpiperazin-1-yl)-2-oxoethoxy)benzylidene)-7-methyl-3-oxo-5-(p-tolyl)-2,3-dihydro-5H-thiazolo[3,2-a]pyrimidine-6-carboxylate]",–,4.00 to 4.30,–,+ +
"CC1=C(C(=O)OC(C)C)C(c2cccc(Cl)c2)n2c(s/c(=C\c3ccc(OCC(=O)O)cc3)c2=O)=N1 (stereo not drawn) [15S0 (66), (Z)-2-(4-((5-(3-chlorophenyl)-6-(isopropoxycarbonyl)-7-methyl-3-oxo-5H-thiazolo[3,2-a]pyrimidin-2(3H)-ylidene)methyl)phenoxy)acetic acid]",< 4.30,< 4.00,–,–
